Patent US10087185B2 (Janssen Pharmaceutica NV, priority 2016, dated 2018)

target: TARP γ8 dependent AMPA receptor (GRIA1o-CACNG8 fusion construct) (Homo sapiens (Human), UniProt P42261+Q8WXS5); assay: Calcium flux assay (FLIPR), inhibition of glutamate response of GluA1o-γ8 channel; format: cell-based; conditions: HEK293 cells stably expressing GRIA1o-CACNG8 fusion; calcium flux after 15 μM glutamate; negative log of the IC50 in molar
Excerpt: This assay was used to test compounds for their ability to inhibit TARP γ8 dependent AMPA receptor activity. The AMPA receptor is a non-selective cation channel activated by glutamate. […] But, this desensitization is incomplete, and a substantial steady-state current remains in the sustained presence of glutamate (Cho et al. (2007). “Two families of TARP isoforms that have distinct effects on the kinetic properties of AMPA receptors and synaptic currents.” Neuron 55(6): 890-904).
An in vitro assay was used to determine the potency of test compounds as inhibitors of the glutamate response of the channel formed by GluA10-γ8. To ensure a 1:1 stoichiometry of GluA1o and γ8 subunits in the expressed channel, a fusion of the cDNAs for GRIA1o and CACNG8 was used. Following Shi et al (2009) “The stoichiometry of AMPA receptors and TARPs varies by neuronal cell type.” Neuron 62(5): 633-640), the C-terminus of the cDNA for GRIA1o was fused to the N-terminus of the cDNA for γ8. The linker sequence was […]. Channels expressed with this construct appear to have similar properties to channels formed by co-expression of GRIA1o with an excess of CACNG8 (Shi et al. 2009). A clonal cell line in HEK293 cells stably expressing this construct, with a geneticin selection marker, was generated for use in this assay.
Cell expressing the GRIA1o-CACNG8 fusion construct were grown in a monolayer in 96- or 384-well microtiter plates. They were washed with assay buffer (135 mM NaCl, 4 mM KCl, 3 mM CaCl2, 1 mM MgCl2, 5 mM glucose, 10 mM HEPES, pH 7.4, 300 mOs) using a Biotek EL405 plate washer. The cells were then loaded with a calcium-sensitive dye (Calcium-5 or Calcium-6, Molecular Devices) and the test compounds at a range of concentrations. Calcium flux following the addition of 15 μM glutamate was monitored using a Molecular Devices FLIPR Tetra.
The fluorescence in each well was normalized to the fluorescence of negative and positive control wells. The negative control wells had no added compounds, and the positive control wells had been incubated with 10 μM CP465022 (a non-subtype-selective AMPA receptor antagonist) (Lazzaro et al. (2002). “Functional characterization of CP-465,022, a selective, noncompetitive AMPA receptor antagonist.” Neuropharmacology 42(2): 143-153). The responses to glutamate as functions of the test compound concentrations were fitted to a four-parameter logistic function. The fitted parameter corresponding to the midpoint was taken to be the potency of inhibition of the compound. The data in Table 4 below illustrates the observed potency for the compounds described herein. pIC50 refers to the negative log of the IC50 in molar.

TARP γ8 dependent AMPA receptor (GRIA1o-CACNG8 fusion construct), sequence (P42261 other isoform, or with tags, fused parts or gaps): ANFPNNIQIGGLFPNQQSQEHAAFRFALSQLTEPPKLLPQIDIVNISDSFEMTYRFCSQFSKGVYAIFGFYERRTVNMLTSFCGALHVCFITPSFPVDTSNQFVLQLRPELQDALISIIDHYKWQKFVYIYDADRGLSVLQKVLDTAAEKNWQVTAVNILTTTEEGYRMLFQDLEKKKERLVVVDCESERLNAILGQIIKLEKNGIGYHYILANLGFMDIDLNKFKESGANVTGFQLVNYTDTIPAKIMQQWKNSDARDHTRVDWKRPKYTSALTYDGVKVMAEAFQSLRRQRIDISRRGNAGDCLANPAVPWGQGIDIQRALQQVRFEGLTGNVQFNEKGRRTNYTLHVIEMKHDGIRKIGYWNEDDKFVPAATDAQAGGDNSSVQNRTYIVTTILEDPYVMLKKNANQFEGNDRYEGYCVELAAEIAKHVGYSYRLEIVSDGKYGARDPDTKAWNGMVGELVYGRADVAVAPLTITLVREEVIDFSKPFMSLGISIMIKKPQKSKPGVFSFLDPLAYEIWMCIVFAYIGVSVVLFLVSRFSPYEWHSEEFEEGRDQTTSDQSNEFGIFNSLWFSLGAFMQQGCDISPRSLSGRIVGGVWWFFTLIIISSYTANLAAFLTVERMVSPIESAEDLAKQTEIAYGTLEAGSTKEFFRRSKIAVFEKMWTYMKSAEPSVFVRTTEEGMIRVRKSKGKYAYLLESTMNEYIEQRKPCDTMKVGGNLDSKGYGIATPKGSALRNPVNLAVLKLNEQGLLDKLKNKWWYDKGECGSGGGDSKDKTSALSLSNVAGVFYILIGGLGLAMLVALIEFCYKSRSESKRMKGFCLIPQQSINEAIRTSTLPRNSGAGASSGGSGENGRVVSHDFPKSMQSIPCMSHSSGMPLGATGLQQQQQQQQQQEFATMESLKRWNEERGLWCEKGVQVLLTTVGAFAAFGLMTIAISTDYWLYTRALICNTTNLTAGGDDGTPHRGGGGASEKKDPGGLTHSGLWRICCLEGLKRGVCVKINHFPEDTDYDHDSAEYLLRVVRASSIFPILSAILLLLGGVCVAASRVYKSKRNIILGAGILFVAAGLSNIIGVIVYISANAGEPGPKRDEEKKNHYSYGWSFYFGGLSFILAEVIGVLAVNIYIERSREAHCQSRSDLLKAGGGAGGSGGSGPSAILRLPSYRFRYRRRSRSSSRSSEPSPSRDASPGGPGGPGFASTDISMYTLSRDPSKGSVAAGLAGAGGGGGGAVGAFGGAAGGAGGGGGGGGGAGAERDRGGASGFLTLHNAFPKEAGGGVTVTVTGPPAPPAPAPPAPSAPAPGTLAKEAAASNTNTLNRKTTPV

Compound	IC50	pIC50
COc1ccc2nc(C(F)F)nn2c1-c1cc(C(F)(F)F)c2[nH]ncc2c1 [Example 15, 2-(Difluoromethyl)-6-methoxy-5-(7-(trifluoromethyl)-1H-indazol-5-yl)-[1,2,4]triazolo[1,5-a]pyridine]	2 nM	
COc1cc(-c2c(C(F)F)ccc3nc(C(F)(F)F)nn23)cc2c1NC(=O)C2 [Example 20, 5-[6-(Difluoromethyl)-2-(trifluoromethyl)-[1,2,4]triazolo[1,5-a]pyridin-5-yl]-7-methoxy-indolin-2-one]	2.51 nM	
Cc1cc(-c2c(C(F)(F)F)ccc3nc(C4CC4)nn23)cc2c1NC(=O)C2 [Example 41, 5-(2-Cyclopropyl-6-(trifluoromethyl)-[1,2,4]triazolo[1,5-a]pyridin-5-yl)-7-methylindolin-2-one]	0.631 nM	
Cc1cc(-c2c(C(F)(F)F)ccc3nc(C(F)F)nn23)cc2c1NC(=O)C2 [Example 10, 7-Methyl-5-(2-(difluoromethyl)-6-(trifluoromethyl)-[1,2,4]triazolo[1,5-a]pyridin-5-yl)indolin-2-one]	0.794 nM	
Cc1cc(-c2c(C(F)(F)F)ccc3nc(C(F)F)nn23)cc2cn[nH]c12 [Example 8, 5-(7-Methyl-1H-indazol-5-yl)-2-(difluoromethyl)-6-(trifluoromethyl)-[1,2,4]triazolo[1,5-a]pyridine]	0.398 nM	
COc1nc2ccc(C(F)(F)F)c(-c3cc(Cl)c4[nH]ncc4c3)n2n1 [Example 43, 5-(7-Chloro-1H-indazol-5-yl)-2-methoxy-6-(trifluoromethyl)-[1,2,4]triazolo[1,5-a]pyridine]	3.16 nM	
Cc1cc(C(F)F)c(-c2cc(Cl)c3c(c2)CC(=O)N3)n2nc(C(F)(F)F)nc12 [Example 110, 7-Chloro-5-(6-(difluoromethyl)-8-methyl-2-(trifluoromethyl)-[1,2,4]triazolo[1,5-a]pyridin-5-yl)indolin-2-one]	0.794 nM	
Cc1nc2ccc(C(F)(F)F)c(-c3cc(Cl)c4[nH]ncc4c3)n2n1 [Example 21, 5-(7-Chloro-1H-indazol-5-yl)-2-methyl-6-(trifluoromethyl)-[1,2,4]triazolo[1,5-a]pyridine]	0.631 nM	
Cc1cc(-c2c(C(F)(F)F)cc(C)c3nc(C(F)F)nn23)cc2cn[nH]c12 [Example 86, 2-(Difluoromethyl)-8-methyl-5-(7-methyl-1H-indazol-5-yl)-6-(trifluoromethyl)-[1,2,4]triazolo[1,5-a]pyridine]		9.4
CCCc1nc2c(Cl)cc(C(F)(F)F)c(-c3cc(C)c4c(c3)CC(=O)N4)n2n1 [Example 98, 5-(8-Chloro-2-propyl-6-(trifluoromethyl)-[1,2,4]triazolo[1,5-a]pyridin-5-yl)-7-methylindolin-2-one]	0.794 nM	
Cc1nc2ccc(C(F)(F)F)c(-c3cc(Cl)c4c(c3)CC(=O)N4)n2n1 [Example 23, 7-Chloro-5-(2-methyl-6-(trifluoromethyl)-[1,2,4]triazolo[1,5-a]pyridin-5-yl)indolin-2-one]	10 nM	
CCCc1nc2c(Cl)cc(C(F)(F)F)c(-c3cc(Cl)c4c(c3)CC(=O)N4)n2n1 [Example 97, 7-Chloro-5-(8-chloro-2-propyl-6-(trifluoromethyl)-[1,2,4]triazolo[1,5-a]pyridin-5-yl)indolin-2-one]	0.501 nM	
Cc1cc(-c2c(C(F)F)cc(C)c3nc(C(F)(F)F)nn23)cc2cn[nH]c12 [Example 111, 6-(Difluoromethyl)-8-methyl-5-(7-methyl-1H-indazol-5-yl)-2-(trifluoromethyl)-[1,2,4]triazolo[1,5-a]pyridine]	0.794 nM	
CCc1nc2c(Cl)cc(C(F)(F)F)c(-c3cc(Cl)c4[nH]ncc4c3)n2n1 [Example 29, 8-Chloro-5-(7-chloro-1H-indazol-5-yl)-2-ethyl-6-(trifluoromethyl)-[1,2,4]triazolo[1,5-a]pyridine]	0.398 nM	
CCc1nc2c(C)cc(C(F)(F)F)c(-c3cc4c(c(C(F)(F)F)c3)NC(=O)C4)n2n1 [Example 102, 5-(2-Ethyl-8-methyl-6-(trifluoromethyl)-[1,2,4]triazolo[1,5-a]pyridin-5-yl)-7-(trifluoromethyl)indolin-2-one]	1.58 nM	
CCc1nc2c(F)cc(C(F)(F)F)c(-c3cc(Cl)c4c(c3)CC(=O)N4)n2n1 [Example 32, 7-Chloro-5-[2-ethyl-8-fluoro-6-(trifluoromethyl)-[1,2,4]triazolo[1,5-a]pyridin-5-yl]indolin-2-one]	2 nM	
COc1ccc2nc(C(F)(F)F)nn2c1-c1cc(C)c2[nH]ncc2c1 [Example 51, 6-Methoxy-5-(7-methyl-1H-indazol-5-yl)-2-(trifluoromethyl)-[1,2,4]triazolo[1,5-a]pyridine]	5.01 nM	

More lines, in order of falling IC50, values ahead:

IC50	pIC50	Compound
0.398 nM		Cc1cc(-c2c(C(F)(F)F)cc(C)c3nc(C(F)F)nn23)cc2cn[nH]c12 [Example 79, 2-(Difluoromethyl)-8-methyl-5-(7-methyl-1H-indazol-5-yl)-6-(trifluoromethyl)-[1,2,4]triazolo[1,5-a]pyridine]
0.316 nM		Cc1cc(-c2c(C(F)(F)F)ccc3nc(C(C)C)nn23)cc2cn[nH]c12 [Example 37, 2-Isopropyl-5-(7-methyl-1H-indazol-5-yl)-6-(trifluoromethyl)-[1,2,4]triazolo[1,5-a]pyridine]
0.251 nM		Cc1cc(C(F)F)c(-c2cc(Cl)c3[nH]ncc3c2)n2nc(C(F)(F)F)nc12 [Example 77, 5-(7-Chloro-1H-indazol-5-yl)-6-(difluoromethyl)-8-methyl-2-(trifluoromethyl)-[1,2,4]triazolo[1,5-a]pyridine]
0.158 nM		CCc1cc(-c2c(C(F)(F)F)cc(C)c3nc(C(F)(F)F)nn23)cc2c1NC(=O)C2 [Example 104, 7-Ethyl-5-(8-methyl-2,6-bis(trifluoromethyl)-[1,2,4]triazolo[1,5-a]pyridin-5-yl)indolin-2-one]
0.158 nM		CCc1cc(C(F)(F)F)c(-c2cc(Cl)c3[nH]ncc3c2)n2nc(C3CC3)nc12 [Example 80, 5-(7-Chloro-1H-indazol-5-yl)-2-cyclopropyl-8-ethyl-6-(trifluoromethyl)-[1,2,4]triazolo[1,5-a]pyridine]
0.0501 nM		Cc1cc(-c2c(C(F)(F)F)ccc3cc(C4CC4)nn23)cc2c1NC(=O)C2 [Example 67, 5-(2-Cyclopropyl-6-(trifluoromethyl)pyrazolo[1,5-a]pyridin-7-yl)-7-methylindolin-2-one]
0.0251 nM		Cc1cc(-c2c(C(F)F)ccc3cc(C(F)(F)F)nn23)cc2cn[nH]c12 [Example 121, 6-(Difluoromethyl)-7-(7-methyl-1H-indazol-5-yl)-2-(trifluoromethyl)pyrazolo[1,5-a]pyridine]
0.0158 nM		Cc1cc(-c2c(C(F)(F)F)ccc3cc(C(C)C)nn23)cc2c1NC(=O)C2 [Example 71, 5-(2-Isopropyl-6-(trifluoromethyl)pyrazolo[1,5-a]pyridin-7-yl)-7-methylindolin-2-one]
0.0158 nM		FC(F)c1ccc2cc(C(F)(F)F)nn2c1-c1cc(Cl)c2[nH]ncc2c1 [Example 120, 7-(7-Chloro-1H-indazol-5-yl)-6-(difluoromethyl)-2-(trifluoromethyl)pyrazolo[1,5-a]pyridine]
0.0158 nM		Cc1cc(-c2c(C(F)(F)F)ccc3cc(C(F)(F)F)nn23)cc2cn[nH]c12 [Example 64, 5-(2,6-Bis(trifluoromethyl)pyrazolo[1,5-a]pyridin-7-yl)-7-methyl-1H-indazole]
